Like-named read-outs stand apart in the source and are kept apart here.
Tests used:
GSPT1 = target: T1, GSPT1 (Homo sapiens, UniProt P15170+Q96SW2); test: GSPT1 HiBiT degradation assay in HEK293T.114 cells; format: cell-based; details: 6 hours
T1 construct: CRISPR-edited to endogenously express HiBiT tagged GSPT1; host or cells: HEK293T.114
Excerpt: This assay evaluated the off-target degradation of the cereblon neosubstrate, Eukaryotic peptide chain release factor GTP-binding subunit ERF3A (GSPT1), induced by treatment with Compound 1 as measured by luminescence using Nano-Glo HiBiT® Lytic Assay System in 293T cells CRISPR-edited to endogenously express HiBiT tagged GSPT1.
Nano-Glo® HiBiT Lytic Assay System was purchased from Promega (Catalog No. N3050, Madison, WI, USA). HEK293T cells were obtained from ATCC (Catalog No. CRL-3216, Manassas, VA, USA), and maintained in DMEM medium (Catalog No. 11995065, ThermoFischer Scientific, Waltham, MA, USA) supplemented with 10% heat inactivated FBS (Catalog No. 16000-044, Gibco, Grand Island, NY, USA) at 37° C. in an atmosphere of 5% CO2 in air. The HiBiT polypeptide tag was introduced into the N-terminus of the endogenous GSPT1 locus by CRISPR-Cas9 to produce the HEK293T.114 modified cell line. The HiBiT polypeptide allows reconstitution of NanoBiT enzyme following cell lysis and addition of the complementing LgBiT polypeptide that activates substrate to produce a luminescent signal that is directly proportional to the amount of HiBiT-tagged GSPT1.
HEK293T.114 cells were routinely sub-cultured to maintain cell density between 30-80% confluence, not to exceed 20 passages. Cells were washed with PBS, trypsinized for 5 minutes at 37° C., and resuspended in fresh growth media without phenol red. An aliquot was diluted 2× with Trypan Blue solution 0.4% (Catalog No. 15250061, ThermoFisher Scientific, Waltham, MA, USA) and cell count determined. Cell concentration was adjusted with growth media without phenol red to 2×10^5 cells/mL.
The 10 mM DMSO stock solutions of Compound 1 or CC0885 were serially diluted (half log) in DMSO to generate 11-point dose series (10000, 3160, 1000, 316, 100, 31.6, 10, 3.2, 1, 0.32, 0.1 μM) in an acoustic ready 384-well low dead volume microplate (Catalog No. LP-0200, Beckman Coulter Life Sciences, Indianapolis, IN, USA). Using an Echo 550 Acoustic Liquid Handler (Beckman Coulter Life Sciences, Indianapolis, IN, USA), 30 nL of serially diluted compound solutions were dispensed in duplicate to each 384-well black TC-treated microplate (Catalog No. 3571, Corning, Glendale, CA, USA). 30 nL DMSO was transferred to all control wells.
30 μL of HEK293T.114 cells suspended in growth media without phenol red at 2×10^5 cells/mL (6000 cells/well) were dispensed using a Multidrop Combi Reagent Dispenser (Catalog No. 5840300, ThermoFisher Scientific, Waltham, MA, USA) to each well of columns 1-23 of 384-well black TC-treated microplates containing duplicate concentration range of test compounds and DMSO controls. 30 μL of media was dispensed to column 24 as background positive control (P). Plates were spun briefly at 1000 rpm and cells were incubated at 37° C., 5% CO2 for 6 hours. Final concentration of DMSO was 0.1% for all samples.
Cellular GSPT1 protein level was determined based on quantification of HiBiT using Nano-Glo® HiBiT Lytic Assay System (Promega). 30 μL Nano-Glo Lytic Assay reagents were added to each well of columns 1-23 and luminescence was acquired on EnVision® Multilabel Reader (Catalog No. 2104-0010, Perkin Elmer Inc., Dumfries, VA, USA). Column 24 (cells without Nano-Glo reagent addition) was used as plate background or positive control (P). Cells treated in the absence of the test compound (0.1% DMSO vehicle) were the negative control (N)/
Percent response of compound-treated samples (T) were calculated by normalizing to the DMSO treated negative (N) controls on the same microtiter plate after background (i.e., positive control) signal subtraction:
Curve fit and DC50 (concentration that degrades 50% GSPT1) determination was performed by 4 parametric logistic fit analysis using software such as GraphPad Prism software (GraphPad Software, LLC, San Diego, CA, USA). […]

BRD7 = target: T2, BRD7 (Homo sapiens, UniProt Q9NPI1); test: BRD7 HiBiT degradation assay in HEK293T.167 cells; format: cell-based
T2 construct: endogenously expressing BRD7 with HiBiT fusion tag via CRISPR; host or cells: HEK293T.167 (293T.167, BRD7-HiBiT HEK293, LgBiT by lentivirus)
T2 sequence (Q9NPI1 1-651): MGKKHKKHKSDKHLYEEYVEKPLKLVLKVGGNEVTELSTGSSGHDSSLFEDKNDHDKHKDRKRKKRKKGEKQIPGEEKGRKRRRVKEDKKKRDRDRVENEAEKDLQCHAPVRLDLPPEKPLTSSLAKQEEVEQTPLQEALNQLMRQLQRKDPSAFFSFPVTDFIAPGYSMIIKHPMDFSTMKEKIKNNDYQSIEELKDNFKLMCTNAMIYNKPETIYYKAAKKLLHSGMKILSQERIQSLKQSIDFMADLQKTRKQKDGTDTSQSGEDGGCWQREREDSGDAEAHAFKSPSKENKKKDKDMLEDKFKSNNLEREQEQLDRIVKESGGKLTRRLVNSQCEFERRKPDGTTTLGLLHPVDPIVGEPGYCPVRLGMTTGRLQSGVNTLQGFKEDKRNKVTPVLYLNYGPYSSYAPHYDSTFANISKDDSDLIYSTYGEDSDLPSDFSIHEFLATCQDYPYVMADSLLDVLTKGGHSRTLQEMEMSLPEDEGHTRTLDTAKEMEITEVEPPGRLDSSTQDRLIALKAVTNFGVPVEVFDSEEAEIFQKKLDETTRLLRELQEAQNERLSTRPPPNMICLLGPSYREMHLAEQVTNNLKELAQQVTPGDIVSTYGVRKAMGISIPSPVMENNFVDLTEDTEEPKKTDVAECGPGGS

T1 sequence (P15170 whole entry): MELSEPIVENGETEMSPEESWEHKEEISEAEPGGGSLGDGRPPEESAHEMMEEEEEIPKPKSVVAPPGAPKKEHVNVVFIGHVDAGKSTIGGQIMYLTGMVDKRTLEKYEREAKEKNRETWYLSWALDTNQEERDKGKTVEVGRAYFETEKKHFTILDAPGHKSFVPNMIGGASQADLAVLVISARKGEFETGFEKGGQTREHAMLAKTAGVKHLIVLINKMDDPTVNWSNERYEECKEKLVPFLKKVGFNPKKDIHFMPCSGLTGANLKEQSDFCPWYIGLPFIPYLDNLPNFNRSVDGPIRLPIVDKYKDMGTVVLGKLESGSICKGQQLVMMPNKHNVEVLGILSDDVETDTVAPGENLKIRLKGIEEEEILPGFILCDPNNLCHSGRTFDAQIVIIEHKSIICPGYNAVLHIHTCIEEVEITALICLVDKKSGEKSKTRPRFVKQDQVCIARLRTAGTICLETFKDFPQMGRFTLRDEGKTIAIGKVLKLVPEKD
T1 sequence (Q96SW2 whole entry): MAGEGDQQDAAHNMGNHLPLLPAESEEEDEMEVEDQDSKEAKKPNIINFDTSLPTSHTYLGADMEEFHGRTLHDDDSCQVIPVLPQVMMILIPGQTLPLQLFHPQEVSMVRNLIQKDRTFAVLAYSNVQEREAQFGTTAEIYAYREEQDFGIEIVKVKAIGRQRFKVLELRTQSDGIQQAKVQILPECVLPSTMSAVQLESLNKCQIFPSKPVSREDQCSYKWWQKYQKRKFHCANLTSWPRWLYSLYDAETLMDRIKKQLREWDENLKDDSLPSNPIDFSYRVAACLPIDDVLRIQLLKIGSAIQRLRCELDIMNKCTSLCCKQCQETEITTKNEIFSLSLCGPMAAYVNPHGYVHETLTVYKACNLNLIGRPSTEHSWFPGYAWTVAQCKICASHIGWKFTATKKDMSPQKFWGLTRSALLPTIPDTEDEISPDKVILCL
T1 sequence (Q16531 2-1140 partner limits assumed): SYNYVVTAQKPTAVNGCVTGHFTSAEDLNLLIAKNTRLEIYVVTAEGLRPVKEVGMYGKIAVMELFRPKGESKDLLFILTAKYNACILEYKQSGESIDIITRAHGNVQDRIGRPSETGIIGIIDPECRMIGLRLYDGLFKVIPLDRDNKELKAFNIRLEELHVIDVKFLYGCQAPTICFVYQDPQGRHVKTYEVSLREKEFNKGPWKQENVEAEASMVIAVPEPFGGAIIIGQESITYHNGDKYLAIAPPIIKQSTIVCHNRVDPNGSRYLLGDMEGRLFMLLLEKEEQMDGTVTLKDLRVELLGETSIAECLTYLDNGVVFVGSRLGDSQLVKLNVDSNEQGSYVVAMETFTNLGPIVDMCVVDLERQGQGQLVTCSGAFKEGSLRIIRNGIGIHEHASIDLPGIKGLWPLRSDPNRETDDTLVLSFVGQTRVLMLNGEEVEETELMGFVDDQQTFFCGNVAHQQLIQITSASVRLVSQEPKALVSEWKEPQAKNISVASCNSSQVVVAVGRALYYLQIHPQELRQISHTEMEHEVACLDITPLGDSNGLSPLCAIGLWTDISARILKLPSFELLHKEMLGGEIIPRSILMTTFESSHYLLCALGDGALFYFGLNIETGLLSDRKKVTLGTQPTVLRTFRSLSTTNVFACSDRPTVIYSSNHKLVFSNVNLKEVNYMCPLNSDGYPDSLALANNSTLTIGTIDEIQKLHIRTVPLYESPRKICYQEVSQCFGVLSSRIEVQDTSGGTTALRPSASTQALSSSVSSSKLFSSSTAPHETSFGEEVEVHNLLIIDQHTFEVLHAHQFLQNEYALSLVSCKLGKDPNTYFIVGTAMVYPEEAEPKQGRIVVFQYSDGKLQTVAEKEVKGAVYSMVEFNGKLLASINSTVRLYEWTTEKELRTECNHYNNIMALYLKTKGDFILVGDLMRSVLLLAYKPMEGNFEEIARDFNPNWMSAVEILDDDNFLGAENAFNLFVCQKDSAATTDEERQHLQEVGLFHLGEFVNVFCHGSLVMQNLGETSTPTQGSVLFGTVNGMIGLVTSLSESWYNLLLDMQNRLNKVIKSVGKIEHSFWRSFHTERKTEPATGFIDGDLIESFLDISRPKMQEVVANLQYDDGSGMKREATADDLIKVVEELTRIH

SMILES: COc1cc(-c2cn(C)c(=O)c(C)c2C)cc(OC)c1CN1CC[C@H](N2CCN(c3ccc(N[C@H]4CCC(=O)NC4=O)cc3F)CC2)C(F)(F)C1 [Compound 1, (S)-3-((4-(4-((S)-1-(2,6-dimethoxy-4-(1,4,5-trimethyl-6-oxo-1,6-dihydropyridin-3-yl)benzyl)-3,3-difluoropiperidin-4-yl)piperazin-1-yl)-3-fluorophenyl)amino)-piperidine-2,6-dione]
- % GSPT1 Remaining, Mean (GSPT1; 0.100 nM): 97.4%
- % GSPT1 Remaining, Mean (GSPT1; 0.316 nM): 86.7%
- % GSPT1 Remaining, Mean (GSPT1; 1.00 nM): 70.8%
- % GSPT1 Remaining, Mean (GSPT1; 3.15 nM): 34.4%
- % GSPT1 Remaining, Mean (GSPT1; 10.0 nM): 12.4%
- % GSPT1 Remaining, Mean (GSPT1; 31.5 nM): 6.0%
- % GSPT1 Remaining, Mean (GSPT1; 100 nM): 4.0%
- % GSPT1 Remaining, Mean (GSPT1; 317 nM): 3.5%
- % GSPT1 Remaining, Mean (GSPT1; 1000 nM): 3.2%
- % GSPT1 Remaining, Mean (GSPT1; 3161 nM): 3.0%
- % GSPT1 Remaining, Mean (GSPT1; 9990 nM): 3.8%
- DC50 (GSPT1; GSPT1-HiBiT, HEK293T.114 cells, read-out: Geometric Mean DC50): > 10 µM
- Emax (GSPT1; GSPT1-HiBiT, HEK293T.114 cells, read-out: Mean Emax (%) ± SD): 93.9 ± 5.85%
- effect on degradation of GSPT1 (GSPT1; concentrations up to 10 μM): no significant effect
- % BRD7 Remaining Relative to Vehicle Control at 24 hr, Mean (BRD7; 0.101 nM): 99.8%
- % BRD7 Remaining Relative to Vehicle Control at 24 hr, Mean (BRD7; 0.318 nM): 101.3%
- % BRD7 Remaining Relative to Vehicle Control at 24 hr, Mean (BRD7; 1.01 nM): 101.0%
- % BRD7 Remaining Relative to Vehicle Control at 24 hr, Mean (BRD7; 3.17 nM): 99.8%
- % BRD7 Remaining Relative to Vehicle Control at 24 hr, Mean (BRD7; 10.0 nM): 102.4%
- % BRD7 Remaining Relative to Vehicle Control at 24 hr, Mean (BRD7; 31.7 nM): 103.4%
- % BRD7 Remaining Relative to Vehicle Control at 24 hr, Mean (BRD7; 100 nM): 101.0%
- % BRD7 Remaining Relative to Vehicle Control at 24 hr, Mean (BRD7; 317 nM): 102.3%
- % BRD7 Remaining Relative to Vehicle Control at 24 hr, Mean (BRD7; 1000 nM): 106.3%
- % BRD7 Remaining Relative to Vehicle Control at 24 hr, Mean (BRD7; 3161 nM): 117.4%
- % BRD7 Remaining Relative to Vehicle Control at 24 hr, Mean (BRD7; 9990 nM): 143.3%
- DC50 (BRD7; BRD7-HiBiT, 293T.167 cells, 24 hours, read-out: Mean DC50): > 10 µM
- Emax (BRD7; BRD7-HiBiT, 293T.167 cells, 24 hours, read-out: Mean Emax (%) ± SD): 97.6 ± 6.41%
- effect on the degradation of BRD7 (BRD7; concentrations up to 10 μM, 24 hours): no significant effect
- DC50 (BRD7; summary statement, read-out: DC50 against BRD7): > 1 µM
